Reference: patent publication US10717729B2, “Thiamine-organic acid salt” (Purdue Research Foundation, priority 2018, dated 2020)
Counter-ions that a name gives are not always drawn.

Legend:
[1] = dynamic moisture sorption, 25° C.
Method: Moisture sorption profiles were generated at 25° C. using an SGA-100 symmetrical gravimetric analyzer (TA Instrument, New Castle, Del.). The samples (5-20 mg) were exposed to 25% to 95% relative humidity (RH) at step size of 5% RH and from 95 to 99% RH at step size of 1% RH, with a maximum step time of 360 min. The equilibrium criteria were set to change of mass of less than 0.01% (w/w) for 5 min for each step. Nitrogen was used as the purge gas.

For `Cc1ncc(C[n+]2csc(CCO)c2C)c(N)n1` [Thiamine Cl HCl, thiamine chloride hydrochloride], which “relative humidity at which high/elevated hygroscopicity is seen” value [1] is on record?
Its value is 95 % RH.

What about the stability in solution of the same compound?
Its stability in solution is “exhibit instability in solution”.

For `Cc1ncc(C[n+]2csc(CCO)c2C)c(N)n1.[Cl-]` [Thiamine Cl, thiamine chloride], which “relative humidity at which high/elevated hygroscopicity is seen” value [1] is on record?
The value was 88 % RH.
